Molecules are shown by their SMILES. Counter-ions that a name gives are not always drawn.

On to `COc1cc2[nH]c(N(C)Cc3cccc(CN4CCCC4)c3)nc(=O)c2c(C)c1OC` [Example 122, 6,7-Dimethoxy-5-methyl-2-[methyl-(3-pyrrolidin-1-ylmethyl-benzyl)-amino]-1H-quinazolin-4-one], for which the melting point lay within 163.9 to 164.5 °C.
Consider `COc1cc2[nH]c(N(C)Cc3cccc(C4CCN(C)CC4)c3)nc(=O)c2c(OC)c1OC.Cl`, for which the melting point lay in the range of 181.5 to 189.4 °C.
For `COc1cc2[nH]c(N(C)Cc3cccc(/N=C4/CCCN4C)c3)nc(=O)c2c(OC)c1OC` [Example 205, 5,6,7-Trimethoxy-2-(methyl-{3-[1-methyl-pyrrolidin-(2Z)-ylideneamino]-benzyl}-amino)-1H-quinazolin-4-one], the melting point is 130 to 133 °C.
To `COCCOc1cccc(CN(C)c2nc(=O)c3c(OC)c(OC)c(OC)cc3[nH]2)c1` [Example F-11, 5,6,7-Trimethoxy-2-{[3-(2-methoxy-ethoxy)-benzyl]-methyl-amino}-1H-quinazolin-4-one] belongs 144.8 to 145.9 °C.
With `COC(=O)N(C)C(C)c1cccc(CN(C)c2nc(=O)c3c(C)c(OC)c(OC)cc3[nH]2)c1` (stereo not shown) [Example 5], the melting point fell in the range of 117.9 to 120.1 °C.
As for `COc1cc2[nH]c(N(C)Cc3cccc(CN4CCCC4)c3)nc(=O)c2c(OC)c1OC` [Example 46, 5,6,7-Trimethoxy-2-[methyl-(3-pyrrolidin-1-ylmethyl-benzyl)-amino]-1H-quinazolin-4-one], the melting point lay within 127 to 129.9 °C.
`COc1cc2[nH]c(N(C)Cc3cccc(N4CCC(C)C4=O)c3)nc(=O)c2c(C)c1OC` (stereo not shown) [Example 256, 6,7-Dimethoxy-5-methyl-2-{methyl-[3-(3-methyl-2-oxo-pyrrolidin-1-yl)-benzyl]-amino}-1H-quinazolin-4-one] registered a melting point of 210.8 to 211.6 °C.
Consider `COc1cc2[nH]c(N(C)Cc3cccc(C(C)N(C)C)c3)nc(=O)c2c(C)c1OC` (stereo not shown) [Example 61, 2-{[3-(1-Dimethylamino-ethyl)-benzyl]-methyl-amino}-6,7-dimethoxy-5-methyl-1H-quinazolin-4-one], for which the melting point lay within 137 to 140.1 °C.
The compound `COc1cc2[nH]c(N(C)Cc3cccc(C4=NCCO4)c3)nc(=O)c2c(OC)c1OC` [Example 11, 2-{[3-(4,5-Dihydro-oxazol-2-yl)-benzyl]-methyl-amino}-5,6,7-trimethoxy-1H-quinazolin-4-one] yielded a melting point of 202.3 to 203.4 °C.
`COc1cc2[nH]c(N(C)Cc3cccc(N)c3)nc(=O)c2c(OC)c1OC` [Example 103, 2-[(3-Amino-benzyl)-methyl-amino]-5,6,7-trimethoxy-1H-quinazolin-4-one] registered a melting point of 225 to 226.5 °C.
For the compound `COc1cc2[nH]c(N(C)Cc3cccc(C(C)N(C)C(=O)N(C)C)c3)nc(=O)c2c(C)c1OC` (stereo not shown) [Example 4, 1-[1-(3-{[(6,7-Dimethoxy-5-methyl-4-oxo-1,4-dihydro-quinazolin-2-yl)-methyl-amino]-methyl}-phenyl)-ethyl]-1,3,3-trimethyl-urea], the melting point was in the range of 125.9 to 128 °C.
With `CNCCc1ccc(CN(C)c2nc(=O)c3c(C)c(OC)c(OC)cc3[nH]2)cc1` [Example 23, 6,7-Dimethoxy-5-methyl-2-{methyl-[4-(2-methylamino-ethyl)-benzyl]-amino}-1H-quinazolin-4-onbe], the melting point was in the range of 154.6 to 159 °C.
`COc1cc2[nH]c(N(C)Cc3cccc(S(C)(=O)=O)c3)nc(=O)c2c(C)c1OC` [Example 128, 2-[(3-Methanesulfonyl-benzyl)-methyl-amino]-6,7-dimethoxy-5-methyl-1H-quinazolin-4-one] showed a melting point of 269.5 to 271.5 °C.
For `C=CCN1Cc2ccc(CN(C)c3nc(=O)c4c(OC)c(OC)c(OC)cc4[nH]3)cc2C1` [Example 13, 2-[(2-Allyl-2,3-dihydro-1H-isoindol-5-ylmethyl)-methyl-amino]-5,6,7-trimethoxy-1H-quinazolin-4-one], the melting point lay in the range of 133.7 to 136.6 °C.
To `COc1cc2[nH]c(N(C)Cc3cccc(CC4CCN(C)CC4)c3)nc(=O)c2c(OC)c1OC` (as salt: HCl) [Example 127, 5,6,7-Trimethoxy-2-{methyl-[3-(1-methyl-piperidin-4-ylmethyl)-benzyl]-amino}-1H-quinazolin-4-one] belongs 175 to 195 °C; to `COc1cc2[nH]c(N(C)Cc3cccc(C(C)N(C)S(C)(=O)=O)c3)nc(=O)c2c(OC)c1OC` (stereo not shown) [Example 292, N-Methyl-N-[1-(3-{[methyl-(5,6,7-trimethoxy-4-oxo-1,4-dihydro-quinazolin-2-yl)-amino]-methyl}-phenyl)-ethyl]-methanesulfonamide], 171 to 172.4 °C; to `CNCCOc1ccc(CN(C)c2nc(=O)c3c(C)c(OC)c(OC)cc3[nH]2)cc1OC` [Example 29, 6,7-Dimethoxy-2-{[3-methoxy-4-(2-methylamino-ethoxy)-benzyl]-methyl-amino}-5-methyl-1H-quinazolin-4-one], 168.9 to 169.8 °C.
Take `COc1cc2[nH]c(N(C)Cc3cccc(N4C=NC(C)(C)C4)c3)nc(=O)c2cc1OC` [Example A-12, 2-{[3-(4,4-Dimethyl-4,5-dihydro-imidazol-1-yl)-benzyl]-methyl-amino}-6,7-dimethoxy-1H-quinazolin-4-one]: the melting point fell in the range of 240 to 244 °C.
`COc1cc2[nH]c(N(C)Cc3cccc(NC4=NCCN4)c3)nc(=O)c2cc1OC` [Example 89, 2-{[3-(4,5-Dihydro-1H-imidazol-2-ylamino)-benzyl]-methyl-amino}-6,7-dimethoxy-1H-quinazolin-4-one] had a melting point of 163.8 to 176.9 °C.
The compound `COc1cc2[nH]c(N(C)Cc3cccc(OCS(C)(=O)=O)c3)nc(=O)c2c(OC)c1OC` [Example F-6, 2-[(3-Methanesulfonylmethoxy-benzyl)-methyl-amino]-5,6,7-trimethoxy-1H-quinazolin-4-one] showed a melting point of 183.9 to 185.4 °C.
In turn, `COc1cc2[nH]c(N(C)Cc3cccc(Nc4nccc(Cl)n4)c3)nc(=O)c2c(OC)c1OC` [Example 215, 2-{[3-(4-Chloro-pyrimidin-2-ylamino)-benzyl]-methyl-amino}-5,6,7-trimethoxy-1H-quinazolin-4-one] registered a melting point of 128.9 to 133.4 °C.
`COc1cc2[nH]c(N(C)Cc3cccc(Oc4ncccn4)c3)nc(=O)c2c(C)c1OC` (as salt: salt) [Example F-3, 6,7-Dimethoxy-5-methyl-2-{methyl-[3-(pyrimidin-2-yloxy)-benzyl]-amino}-1H-quinazolin-4-one] returned a melting point of 224 to 227.8 °C.
To `COCC(=O)N(C)Cc1cccc(CN(C)c2nc(=O)c3c(OC)c(OC)c(OC)cc3[nH]2)c1` [Example 120, 2-Methoxy-N-methyl-N-(3-{[methyl-(5,6,7-trimethoxy-4-oxo-1,4-dihydro-quinazolin-2-yl)-amino]-methyl}-benzyl)-acetamide] belongs 115 to 117 °C; to `CCN(C)CCc1ccc(CN(C)c2nc(=O)c3c(C)c(OC)c(OC)cc3[nH]2)cc1` [Example 28, 2-({4-[2-(Ethyl-methyl-amino)-ethyl]-benzyl}-methyl-amino)-6,7-dimethoxy-5-methyl-1H-quinazolin-4-one], 172.4 to 173.2 °C.
The same measure for `COc1cc2[nH]c(N(C)Cc3cccc(N4CCNC4=O)c3)nc(=O)c2c(OC)c1OC` [Example 261, 5,6,7-Trimethoxy-2-{methyl[3-(2-oxo-imidazolidin-1-yl)-benzyl]-amino}-1H-quinazolin-4-one]: 130 to 133 °C; for `COc1cc2[nH]c(N(C)Cc3cccc(NS(=O)(=O)N(C)C)c3)nc(=O)c2c(C)c1OC` [Example 169, N′-(3-{[(6,7-dimethoxy-5-methyl-4-oxo-1,4-dihydro-quinazolin-2-yl)-methyl-amino]-methyl}-phenyl)-N,N-dimethylsulfamide]: 195.3 to 199 °C; for `COc1cc2[nH]c(N(C)Cc3cccc(N4CCC(OC)C4=O)c3)nc(=O)c2c(OC)c1OC` (stereo not shown) [Example 20, 5,6,7-Trimethoxy-2-{[3-(3-methoxy-2-oxo-prrolidin-1-yl)-benzyl]-methyl-amino}-1H-quinazolin-4-one]: 90.2 to 94.7 °C.
With `COc1cc2[nH]c(N(C)Cc3cccc(OCCO)c3)nc(=O)c2c(C)c1OC` [Example F-9, 2-{[3-(2-Hydroxy-ethoxy)-benzyl]-methyl-amino}-6,7-dimethoxy-5-methyl-1H-quinazolin-4-one], the melting point lay within 180.5 to 183.1 °C.
Regarding `CCCN(C)Cc1cccc(CN(C)c2nc(=O)c3c(C)c(OC)c(OC)cc3[nH]2)c1` [Example 68, 6,7-Dimethoxy-5-methyl-2-(methyl-{3-[(methyl-propyl-amino)-methyl]-benzyl}-amino)-1H-quinazolin-4-one], the melting point lay in the range of 128.1 to 129.1 °C.
In turn, `COCCOc1cccc(CN(C)c2nc(=O)c3c(C)c(OC)c(OC)cc3[nH]2)c1` [Example 160, 6,7-Dimethoxy-2-{[3-(2-methoxy-ethoxy)-benzyl]-methyl-amino}-5-methyl-1H-quinazolin-4-one] registered a melting point of 176.6 to 177.9 °C.
`COc1cc2[nH]c(N(C)Cc3cccc(NC4=NCCC4)c3)nc(=O)c2cc1OC` [Example 87, 2-{[3-(4,5-Dihydro-3H-pyrrol-2-ylamino)-benzyl]-methyl-amino}-6,7-dimethoxy-1H-quinazolin-4-one] came in with a melting point of 211 to 214 °C.
In turn, `CNCc1cccc(CNc2nc(=O)c3c(C)c(OC)c(OC)cc3[nH]2)c1` [Example 69, 6,7-Dimethoxy-5-methyl-2-(3-methylaminomethyl-benzylamino)-1H-quinazolin-4-one] yielded a melting point of 142.5 to 142.9 °C.
Compound `CNC(C)c1cccc(CN(C)c2nc(=O)c3c(OC)c(OC)c(OC)cc3[nH]2)c1` (stereo not shown) [Example 63, 5,6,7-Trimethoxy-2-{methyl-[3-(1-methylamino-ethyl)-benzyl]-amino}-1H-quinazolin-4-one] gave a melting point of 131.8 to 134.4 °C.
The compound `COc1cc2[nH]c(N(C)Cc3cccc(O)c3)nc(=O)c2c(OC)c1OC` [Example 155, 2-[(3-Hydroxy-benzyl)-methyl-amino]-5,6,7-trimethoxy-1H-quinazolin-4-one] displayed a melting point of 212.3 to 215.1 °C.

The term melting point denotes the temperature, or range, at which the solid turns liquid.

Values taken from patent US7244738B2, “Arylamine-substituted quinazolinone compounds useful as alpha 1A/B adrenergic receptor antagonists” (Roche Palo Alto LLC, priority 2003, dated 2007).
